Laboratory results reported in the supplement of paper PMC10307832.

Tests used:
Assay in all cases: relative viability (nuclei count vs DMSO), 5 days (fraction); higher = more cells survive
Kobe2602 + Crizotinib = compound: C1=CC(=CC=C1NC(=S)NNC2=C(C=C(C=C2[N+](=O)[O-])C(F)(F)F)[N+](=O)[O-])F [Kobe2602] + C[C@@H](Oc1cc(-c2cnn(C3CCNCC3)c2)cnc1N)c1c(Cl)ccc(F)c1Cl [Crizotinib] (partner 1 µM)
Outline: (§1)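 The day after seeding in 1536-well plates, lung cancer cell lines were treated by pin tool with a single drug, or with a fixed anchor-drug dose together with five library-drug doses (not always all listed) in √10 steps. After 5 days, a combined fix-and-stain solution (final 0.05% Triton X-100, 1% formaldehyde, 1 ug/ml Hoechst) was added. Nuclei counted on 4× images gave relative viability as treated counts over vehicle counts, reported as the median of duplicate plates.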

Kobe2602 + Linsitinib = compound: C1=CC(=CC=C1NC(=S)NNC2=C(C=C(C=C2[N+](=O)[O-])C(F)(F)F)[N+](=O)[O-])F [Kobe2602] + C[C@]1(O)C[C@@H](c2nc(-c3ccc4ccc(-c5ccccc5)nc4c3)c3c(N)nccn32)C1 [Linsitinib] (partner 1 µM)
Outline: as §1

Kobe2602 + Alpelisib = compound: C1=CC(=CC=C1NC(=S)NNC2=C(C=C(C=C2[N+](=O)[O-])C(F)(F)F)[N+](=O)[O-])F [Kobe2602] + Cc1nc(NC(=O)N2CCC[C@H]2C(N)=O)sc1-c1ccnc(C(C)(C)C(F)(F)F)c1 [Alpelisib] (partner 2 µM)
Outline: as §1

Kobe2602 + Olaparib = compound: C1=CC(=CC=C1NC(=S)NNC2=C(C=C(C=C2[N+](=O)[O-])C(F)(F)F)[N+](=O)[O-])F [Kobe2602] + O=C(c1cc(Cc2n[nH]c(=O)c3ccccc23)ccc1F)N1CCN(C(=O)C2CC2)CC1 [Olaparib] (partner 8 µM)
Outline: as §1

Cell Line	relative viability (Kobe2602 + Crizotinib; first compound 0.2 µM)	relative viability (Kobe2602 + Crizotinib; first compound 0.6325 µM)	relative viability (Kobe2602 + Crizotinib; first compound 2 µM)	relative viability (Kobe2602 + Crizotinib; first compound 6.325 µM)	relative viability (Kobe2602 + Crizotinib; first compound 20 µM)	relative viability (Kobe2602 + Linsitinib; first compound 0.2 µM)	relative viability (Kobe2602 + Linsitinib; first compound 0.6325 µM)	relative viability (Kobe2602 + Linsitinib; first compound 2 µM)	relative viability (Kobe2602 + Linsitinib; first compound 6.325 µM)	relative viability (Kobe2602 + Linsitinib; first compound 20 µM)	relative viability (Kobe2602 + Alpelisib; first compound 0.2 µM)	relative viability (Kobe2602 + Alpelisib; first compound 0.6325 µM)	relative viability (Kobe2602 + Alpelisib; first compound 2 µM)	relative viability (Kobe2602 + Alpelisib; first compound 6.325 µM)	relative viability (Kobe2602 + Alpelisib; first compound 20 µM)	relative viability (Kobe2602 + Olaparib; first compound 0.2 µM)	relative viability (Kobe2602 + Olaparib; first compound 0.6325 µM)	relative viability (Kobe2602 + Olaparib; first compound 2 µM)	relative viability (Kobe2602 + Olaparib; first compound 6.325 µM)	relative viability (Kobe2602 + Olaparib; first compound 20 µM)
NCI-H1944	1.01	1.19	1.14	1.09	1.14	1.22	1.26	1.28	1.17	1.29	0.803	0.884	0.885	0.805	0.944	0.475	0.385	0.403	0.432	0.403
NCI-H1975	1.01	0.959	0.838	0.897	0.779	0.969	0.917	0.978	0.859	0.818	0.641	0.648	0.559	0.564	0.524	0.763	0.78	0.766	0.722	0.755
NCI-H1993	0.82	0.89	0.72	0.753	0.782	0.725	0.826	0.753	0.698	0.783	0.67	0.844	0.591	0.669	0.666	0.853	1.07	0.922	0.918	1.26
NCI-H2009	1.02	1.03	1.01	1.05	1.03	1.13	1.2	1.1	1.19	1.15	1.12	1.22	1.13	1.3	1.18	0.685	0.701	0.735	0.714	0.736
NCI-H2023	0.674	0.627	0.526	0.611	0.473	0.575	0.728	0.528	0.586	0.682	0.561	0.58	0.588	0.516	0.498	0.496	0.566	0.511	0.446	0.166
NCI-H2085	0.843	0.823	0.904	0.855	0.723	0.926	0.829	0.864	0.977	0.97	1.04	0.99	0.894	1.01	1.05	0.768	0.835	0.848	0.809	0.799
NCI-H2087	0.671	0.766	0.922	0.786	0.802	1.11	0.864	0.882	0.939	0.94	1.27	1.08	1.09	1.11	1.03	0.564	0.696	0.705	0.639	0.637
NCI-H2126	1.01	1.06	0.962	1.01	0.912	0.718	0.659	0.7	0.704	0.765	0.688	0.817	0.726	0.735	0.806	0.868	0.892	0.905	0.929	0.926
